# From patent US6835382B2, “Ii peptide therapeutics to enhance antigen presentation” (University of Massachusetts, priority 1996, dated 2004)
# Columns and labels:
# [1] = molecular target: T1, murine E^d MHC class II allele (Mus musculus, UniProt P01904+P01915); assay: simultaneous assay, E^d allele (A20 APC, G28.C9 T hybridoma, HEL106-116; HT-2 [3H]TdR readout); type: cell-based; design: The A20 and CH27 B cell lymphoma lines express H-2^d and H-2^k alleles, respectively; endogenous in cells; host or cells: A20 B cell lymphoma (mitomycin C-treated or paraformaldehyde-fixed); conditions: AE peptide 64 μM, supernatant 1:4; for Times Baseline Response, Ed: Table 3
# T1 sequence (P01904 26-255): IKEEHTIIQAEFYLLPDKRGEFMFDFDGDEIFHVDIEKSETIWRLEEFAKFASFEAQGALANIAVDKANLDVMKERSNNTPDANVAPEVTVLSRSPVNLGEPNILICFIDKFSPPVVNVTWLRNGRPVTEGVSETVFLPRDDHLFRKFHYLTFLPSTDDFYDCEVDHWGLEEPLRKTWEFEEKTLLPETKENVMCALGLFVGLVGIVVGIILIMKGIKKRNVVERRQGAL
# T1 sequence (P01915 27-264 limits assumed): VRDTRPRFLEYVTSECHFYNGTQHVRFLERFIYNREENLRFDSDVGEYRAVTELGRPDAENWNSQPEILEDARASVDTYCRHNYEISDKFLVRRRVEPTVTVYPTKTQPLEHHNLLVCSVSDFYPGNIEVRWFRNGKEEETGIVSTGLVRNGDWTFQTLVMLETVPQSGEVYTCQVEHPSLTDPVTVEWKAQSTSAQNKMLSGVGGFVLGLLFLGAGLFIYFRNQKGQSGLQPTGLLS
# Experimental: (§1) Examples 1-4 (Tables 1-18) will be briefly considered in order to establish the concept of tolerance discussed above. These examples describe experimental results observed in the so-called “simultaneous” assay. In the simultaneous assay four principle components are cultured together for a 24 hour period. The components of this culture, which are added simultaneously, are: (a) an antigenic peptide characterized by the ability to bind specifically into the antigenic peptide binding groove of an MHC class II molecule, (b) mitomycin C-treated, MHC class II-positive antigen presenting cells (APC) bearing the MHC class II allele required for binding of the specific antigenic peptide, and presentation of the specific antigenic peptide to the antigenic peptide-specific T cell hybridoma, (c) an effector compound of the present invention, and (d) an MHC class II allele-restricted T cell hybridoma specific for the antigenic peptide and the MHC class II allele restricting its presentation. Following incubation of this primary culture, an aliquot of its supernatant is transferred into a second culture well for incubation with an interleukin-dependent lymphoblastoid cell line. The degree of stimulation of that second, indicator cell by the interleukins which had been released from the activated T cell hybridoma in the primary culture is measured by quantitating tritiated thymidine deoxyribose {[^3H]TdR} uptake into the DNA of the HT-2 indicator cells of that second culture.
# (§2) In the “simultaneous assay” the four components of the assay are cultured together for a 24 h period. The components of this primary culture, added at the same time or simultaneously, are: (a) the antigenic peptide, (b) mitomycin C-treated, MHC class II-positive antigen presenting cells (APC) with the MHC class II allele required for binding of the specific antigenic peptide and its presentation to the antigenic peptide-specific T cell hybridoma, (c) an AE101 series effector peptide, and (d) MHC class II allele-restricted T cell hybridoma specific for the antigenic peptide and the MHC class II allele restricting its presentation. At the end of the incubation of this primary culture, an aliquot of its supernatant is transferred into a second culture well for incubation with an interleukin-dependent lymphoblastoid cell line. The degree of stimulation of that second, indicator cell by the interleukins which had been released from the activated T cell hybridoma in the primary culture is measured by quantitating tritiated thymidine deoxyribose {[^3H]TdR} uptake into the DNA of the HT-2 indicator cells of that second culture.
# (§3) For these various assays, the following antigenic peptides were used: HEL11-25, hen egg lysozyme 11-25, AMKRHGLDNYRGYSL(A^d) (SEQ ID NO:5); HEL46-61, hen egg lysozyme 46-61, NTDGSTDYGILQINSR(Ak) (SEQ ID NO:6); HEL106-116, hen egg lysozyme 106-116, NAWVAWRNRCK (E^d) (SEQ ID NO:7); PGCC81-104, pigeon cytochrome c 81-104, […] (Ek) (SEQ ID NO:8), and THMCC82-103, tobacco hornworm moth cytochrome c 82-103, […] (Ek) (SEQ ID NO:9). AE101 series peptides were obtained from commercial sources. In general, the purity and composition of each peptide was confirmed by HPLC separation and mass spectrometry. The native protein antigens were HEL, hen egg lysozyme, and PGCC, pigeon cytochrome C. They were obtained from commercial sources.
# (§4) For the experiments of these Examples, several T cell hybridomas, which are specific for certain antigenic peptides, were used. The TPc9.1 T hybridoma is specific for pigeon cytochrome C 81-104 peptide presented on the murine class II MHC allele E^k. The TPc9.1 hybridoma responds heteroclitically to tobacco hornworm moth cytochrome c 82-103 on E^k. The 3A9 T hybridoma is specific for hen egg lysozyme 46-61 on A^k. The 9.30.B2 hybridoma is specific for hen egg lysozyme 11-25 on A^d, and the G28.C9 hybridoma is specific for hen egg lysozyme 106-116 on E^d. […]
# [2] = system: murine E^k MHC class II allele; assay: simultaneous assay, E^k allele (CH27 APC, TPc9.1 T hybridoma, THMCC82-103 or PGCC81-104); type: cell-based; conditions: AE peptide 64 μM, supernatant 1:4; for Times Baseline Response, Ek: Table 3, values reduced relative to E^d by a factor of 10
# Experimental: as §1, §2, §3, §4
# [3] = Table 5, normalized to E^d by a factor of 10
# [4] = Table 6, reduced by a factor of 5
Substance,"Times Baseline Response, E^d ([1]; Table 5)","Times Baseline Response, E^k [2, 3]","Times Baseline Response, E^d ([1]; Table 6)","Times Baseline Response, E^k [2, 4]",other results
Ac-D RMKLPK-NH2 [AE185],–,–,–,–,"Times Baseline Response, Ed [1]: 1.2; Times Baseline Response, Ek [2]: 0.9"
Ac-E RMKLPK-NH2 [AE186],–,–,–,–,"Times Baseline Response, Ed [1]: 2.5; Times Baseline Response, Ek [2]: 1.3"
Ac-F RMKLPK-NH2 [AE189],–,–,–,–,"Times Baseline Response, Ed [1]: 12.1; Times Baseline Response, Ek [2]: 18.2"
Ac-H RMKLPK-NH2 [AE183],–,–,–,–,"Times Baseline Response, Ed [1]: 10.3; Times Baseline Response, Ek [2]: 17.3"
Ac-HArg RMKLPK-NH2 [AE182],–,–,–,–,"Times Baseline Response, Ed [1]: 18.8; Times Baseline Response, Ek [2]: 26.5"
Ac-K RMKLPK-NH2 [AE184],–,–,–,–,"Times Baseline Response, Ed [1]: 14.1; Times Baseline Response, Ek [2]: 11.8"
Ac-LR D KLPK-NH2 [AE200],8.3,3.9,–,–,–
Ac-LR E KLPK-NH2 [AE201],7.0,3.4,–,–,–
Ac-LR F KLPK-NH2 [AE204],14.0,31.8,–,–,–
Ac-LR H KLPK-NH2 [AE198],16.1,18.7,–,–,–
Ac-LR K KLPK-NH2 [AE199],12.1,22.9,–,–,–
Ac-LR Q KLPK-NH2 [AE203],14.1,20.5,–,–,–
Ac-LR Y KLPK-NH2 [AE205],13.9,27.4,–,–,–
Ac-LRM D LPK-NH2 [AE214],–,–,0.8,0.4,–
Ac-LRM E LPK-NH2 [AE215],–,–,0.7,0.4,–
Ac-LRM F LPK-NH2 [AE218],–,–,3.1,9.0,–
Ac-LRM H LPK-NH2 [AE213],–,–,6.1,5.7,–
Ac-LRM HArg LPK-NH2 [AE212],–,–,13.2,15.4,–
Ac-LRM N LPK-NH2 [AE216],–,–,2.4,3.3,–
Ac-LRM Q LPK-NH2 [AE217],–,–,4.0,4.4,–
Ac-LRM Y LPK-NH2 [AE219],–,–,7.1,8.8,–
